Results published in US20250195482A1, “METHOD AND COMPOSITION FOR IMPROVING HEALTH OF HAIR FOLLICLES, SCALP OR HAIR OF MAMMALS” (NANJING NUTRABUILDING BIO-TECH CO., LTD., priority 2022, published 2025).

Assays:
Format in all cases: cell-based
[1] = system: Staphylococcus epidermidis; experiment: Growth inhibition of Staphylococcus epidermidis (optical density); details: 1000 μM DHB, 530 nm, 48 h shaking at 30° C.; control 1.8
Method: (§1) Growth inhibition of M. globosa, M. restricta, Propionibacterium acnes, Staphylococcus aureus and Staphylococcus epidermidis was tested using 50-ml tubes with 10 ml of mDixon medium. Cultures were inoculated to an optical density (OD) of 0.2, the above microorganisms were loaded into each culture dish, and challenged with test material (control and DHB with different concentrations: 0.001 μM, 0.01 μM, 0.1 μM, 1 μm, 10 μM, 100 μM and 1000 μM). After 48 h of shaking at 30° C., the OD was measured by spectrophotometer and recorded.

Staphylococcus aureus = experiment: Growth inhibition of Staphylococcus aureus (optical density); details: 1000 μM DHB, 530 nm, 48 h shaking at 30° C.; control 2.1
Method: as §1

M. restricta = experiment: Growth inhibition of M. restricta (optical density); details: 1000 μM DHB, 600 nm, 48 h shaking at 30° C., mDixon medium; control 6.5
Method: as §1

Propionibacterium acnes = experiment: Growth inhibition of Propionibacterium acnes (optical density); details: 1000 μM DHB, 530 nm, 48 h shaking at 30° C.; control 2.6
Method: as §1

M. globosa = experiment: Growth inhibition of M. globosa (optical density); details: 1000 μM DHB, 600 nm, 48 h shaking at 30° C., mDixon medium; control 4.1
Method: as §1

COc1ccc2c(c1OC)CN1CCc3cc4c(cc3C1=C2)OCO4 [DHB, Dihydroberberine]
optical density of Staphylococcus epidermidis [1]: 0.3 | optical density of Staphylococcus aureus (Staphylococcus aureus): 0.3 | optical density of M. restricta (M. restricta): 1.1 | optical density of Propionibacterium acnes (Propionibacterium acnes): 0.9 | optical density of M. globosa (M. globosa): 0.2
